Source: ChEMBL document CHEMBL1150487, “Cyanoguanidine bioisosteres in potassium channel openers: Evaluation of 3,4-disubstituted-1,2,5-thiadiazole-1-oxides” (Bioorg Med Chem Lett, 1996)

Legend:
Type in all cases: functional
Rattus norvegicus [1] = species on record: Rattus norvegicus; assay: Membrane potential change (fluorescence-based in vitro assay using DIBAC4 as indicator) in A-10 smooth muscle cell, to estimate potassium channel opening activity at 1 uM
Rattus norvegicus [2] = species on record: Rattus norvegicus; assay: Membrane potential change (fluorescence-based in vitro assay using DIBAC4 as indicator) in A-10 smooth muscle cell, to estimate potassium channel opening activity at 0.1 uM
Rattus norvegicus [3] = species on record: Rattus norvegicus; assay: Membrane potential change (fluorescence-based in vitro assay using DIBAC4 as indicator) in A-10 smooth muscle cell, to estimate potassium channel opening activity at 10 uM

Row | SMILES | Change (Rattus norvegicus [1]) [%] | Change (Rattus norvegicus [2]) [%] | Change (Rattus norvegicus [3]) [%]
1 | [O-][s+]1nc(NCCc2ccccc2)c(Nc2cc(Cl)cc(Cl)c2)n1 (stereo unspecified) | -1.29 | -1.01 | 
2 | CC(N/C(=N\C#N)Nc1ccncc1)C(C)(C)C (stereo unspecified) | -45.6 | -5.89 | -57.4
3 | [O-][s+]1nc(NCCCCc2ccccc2)c(Nc2cc(Cl)cc(Cl)c2)n1 (stereo unspecified) | -6.18 | -7.2 | 4.02
4 | CCCCNc1n[s+]([O-])nc1Nc1cc(Cl)cc(Cl)c1 (stereo unspecified) | -10.3 | 1.29 | -44.7
5 | [O-][s+]1nc(NCCCc2ccccc2)c(Nc2cc(Cl)cc(Cl)c2)n1 (stereo unspecified) | -19.7 |  | 14.1
6 | CC(C)CNc1n[s+]([O-])nc1Nc1cc(Cl)cc(Cl)c1 (stereo unspecified) | -3.59 | -1.32 | 10.8
7 | CCCNc1n[s+]([O-])nc1Nc1cc(Cl)cc(Cl)c1 (stereo unspecified) | 5.85 | 8.06 | -11.1
8 | CC(C)CCNc1n[s+]([O-])nc1Nc1cc(Cl)cc(Cl)c1 (stereo unspecified) | -12 | 10.7 | -45.5
9 | [O-][s+]1nc(Nc2cc(Cl)cc(Cl)c2)c(NC2CC2)n1 (stereo unspecified) | -1.1 | 0.95 | -3.96
10 | [O-][s+]1nc(Nc2cc(Cl)cc(Cl)c2)c(NC2CCC2)n1 (stereo unspecified) | -4.23 | -5.89 | -21.8
11 | CCC(C)Nc1n[s+]([O-])nc1Nc1cc(Cl)cc(Cl)c1 (stereo unspecified) | 1.42 | -0.43 | -19
12 | CC(C)(C)CNc1n[s+]([O-])nc1Nc1cc(Cl)cc(Cl)c1 (stereo unspecified) | 5.58 | 1.77 | 1.84
13 | CC(C)Nc1n[s+]([O-])nc1Nc1cc(Cl)cc(Cl)c1 (stereo unspecified) | -5.37 | 2.12 | -9.36
14 | CCCCCNc1n[s+]([O-])nc1Nc1cc(Cl)cc(Cl)c1 (stereo unspecified) | -10.6 | 8.48 | -26.3
15 | [O-][s+]1nc(NCc2ccccc2)c(Nc2cc(Cl)cc(Cl)c2)n1 (stereo unspecified) | -0.91 | 7.83 | 0.84
16 | CCCNc1n[s+]([O-])nc1Nc1ccccc1 (stereo unspecified) | -4.86 | -3.75 | -1.05
17 | CCCCCNc1n[s+]([O-])nc1Nc1ccccc1 (stereo unspecified) | -7.68 | -3.76 | -5.23
18 | Nc1n[s+]([O-])nc1Nc1cc(Cl)cc(Cl)c1 (stereo unspecified) | -4.81 | 10.2 | -4.58
19 | [O-][s+]1nc(Nc2cc(Cl)cc(Cl)c2)c(NC2CCCCC2)n1 (stereo unspecified) | -2.39 | 2.05 | -17.7
20 | [O-][s+]1nc(Nc2cc(Cl)cc(Cl)c2)c(NC2CCCC2)n1 (stereo unspecified) | -1.36 | -5.82 | -4.17
21 | CNc1n[s+]([O-])nc1Nc1cc(Cl)cc(Cl)c1 (stereo unspecified) | -25.1 | -16 | -33.6
